A short description of this assay: Compound was evaluated for its inhibitory activity against porcine pancreatic elastase (PPE).

As a reminder, the IC50 is the concentration needed to halve the response being measured. Lower therefore signals inhibition by little substance.

Structures are written as SMILES. Non-standard residues stand in square brackets, D forms with d. Residues, ends and D or L forms follow the SMILES beside them. *: point of attachment. Hyp = O=C(O)[C@@H]1C[C@@H](O)CN1; Chg = N[C@H](C(=O)O)C1CCCCC1; Nva = CCC[C@H](N)C(=O)O; X1 = c1ccc2cc(C*)ccc2c1

The compound `CCC[C@H](NC(=O)[C@@H]1C[C@@H](OCc2ccc3ccccc3c2)CN1C(=O)[C@@H](NC(=O)[C@@H](NC(=O)[C@@H](CCC(=O)O)NC(=O)[C@H](CC(=O)O)NC(C)=O)C1CCCCC1)C(C)C)C(=O)O` [(S)-2-{[(2S,4R)-1-((S)-2-{(S)-2-[(R)-2-((S)-2-Acetylamino-3-carboxy-propionylamino)-4-carboxy-butyrylamino]-2-cyclohexyl-acetylamino}-3-methyl-butyryl)-4-(naphthalen-2-ylmethoxy)-pyrrolidine-2-carbonyl]-amino}-pentanoic acid] (Ac-D[dE][Chg]V[Hyp](X1)[Nva]-OH) showed an IC50 of more than 300 µM.
